Measurements reported in patent US10100043B2, “Substituted aldehyde compounds and methods for their use in increasing tissue oxygenation” (Global Blood Therapeutics, Inc., priority 2013, dated 2018).

Columns and labels:
[1] = tested on: whole blood from homozygous sickle cell patients; assay: Whole blood assay: oxygen equilibrium curves of whole blood, HEMOX analyzer; type: cell-based, human; details: compounds tested at 1000 μM; hematocrit 20%, 1 hour at 37° C.
Protocol: Oxygen Equilibrium Curves (OEC) of whole blood before and after treatment with different concentrations of substituted benzaldehyde compounds were performed as follows using a HEMOX analyzer (TCS Scientific, New Hope, Pa.). Blood samples from homozygous sickle cell patients were obtained though the Hemoglobinopathy Center at Children's Hospital Oakland Research Institute (CHORI) with Institutional Review Board approval. The hematocrit was adjusted to 20% using autologous plasma and the blood samples were incubated for 1 hour at 37° C. in absence or presence of compounds. 100 μl of these samples were added to 5 mL of Hemox buffer (30 mM TES, 130 mM NaCl, 5 mM KCl, pH=7.4) at 37° C. and then transferred to the Hemox sample chamber. The samples were saturated with oxygen by flushing with compressed air for 10 minutes. The samples were then flushed with pure nitrogen and the respective absorbances of oxy- and deoxy-Hb are recorded as a function of the solution pO2. The oxygen equilibrium data were then fitted to the Hill Model to obtain values for p50. The deoxygenation curves for both whole blood alone (control) and whole blood in the presence of the compound were collected with the TCS software.
Table 5 below lists the delta p50% values where + indicates a delta p50% of between 0 and 29, ++ indicates a delta p50% of between 30 and 50, and +++ indicates a delta p50% of 50 or greater. The compounds in Table 2 were tested at 1000 μM.

purified HBS = biological target: T1, purified HBS (Homo sapiens, UniProt P68871+P69905, E7V); assay: HbS polymerization assay (delay time, absorbance at 700 nm); type: biochemical; details: percent delay (% DT) of polymerization vs HBS alone; 50 μM purified HBS, 1.8 M potassium phosphate pH 7.4
T1 construct: HbS is purified by the CRO VIRUSYS, from blood obtained from homozygous sickle cell patients; tissue VIRUSYS (CRO that did the purification); host or cells: blood of homozygous sickle cell patients (CHORI)
Protocol: Polymerization assays are carried out in vitro using purified HBS exchanged into 1.8 M potassium phosphate buffer at pH 7.4. Using a slightly modified protocol (Antonini and Brunori, 1971), HbS is purified by the CRO VIRUSYS, from blood obtained from homozygous sickle cell patients through the Hemoglobinopathy Center at Children's Hospital Oakland Research Institute (CHORI) with Institutional Review Board approval. Compounds are prepared in 100% DMSO and a desired amount is added to 50 μM of purified HBS at a final DMSO concentration of 0.3%. Final potassium phosphate concentration is adjusted to 1.8 M using a combination of 2.5 M potassium phosphate stock solution and water at pH 7.4. The reaction mixture is incubated for an hour at 37° C. and then transferred into a 24-well plate for deoxygenation in a glove box containing 99.5% nitrogen and 0.5% oxygen. The 24-well plate is not covered and incubated at 4° C. on a plate cooler inside the glove box for one and a half hours. Fifty μL of the reaction mixture is transferred into a 96-well plate and the absorbance at 700 nm is measured every minute for one hour at 37° C. in a plate reader located inside the glove box. A plot of the absorbance against time is fitted using a Boltzman sigmoidal fit and the delay time (from zero to time at half Vmax) is measured. To compare and rank compounds, delay times are expressed as percent delay (% DT), which is defined as the difference in delay times for HBS/compound and HBS alone multiplied by 100 and divided by the delay time for HBS alone.
Compounds listed below have been tested in the polymerization assay. Activity ranges are defined by the number of dagger (†) symbols indicated. † denotes activity ≥40% but ≤80%; †† denotes activity >80% but ≤120%; ††† denotes activity >120% but ≤140%; †††† denotes activity >160%.

HbS/A = biological target: T2, HbS/A (Homo sapiens, UniProt P68871+P69905, E7V); assay: Relaxed-to-tense transition assay (R/T assay); type: biochemical; details: compounds tested at 9 μM; 3 μM HbS/A, 30 μM DPG, 1 hr at 37° C., deoxygenation with N2
T2 construct: A mixture of HbS/A was purified from blood; from tissue; host or cells: blood of homozygous sickle cell patients (CHORI)
Protocol: A relaxed-to-tense transition assay (“R/T assay”) was used to determine the ability of substituted benzaldehyde compounds to maintain the high-oxygen affinity relaxed (R) state of hemoglobin under deoxygenated conditions. This ability can be expressed as a “delta R” value (i.e., the change in the time-period of the R state after hemoglobin is treated with a compound, as compared to the period without treatment with the compound). Delta R is the % R to remaining after the compounds treatment compared with no treatment (e.g. if R % without treatment is 8% while with treatment with a target compound is 48% R at 30 μM, then % R is 40% for that compound.
A mixture of HbS/A was purified from blood obtained from homozygous sickle cell patients though the Hemoglobinopathy Center at Children's Hospital Oakland Research Institute (CHORI) with Institutional Review Board approval. HbS/A (at a final concentration of 3 μM) was incubated for 1 hr at 37° C. in presence or absence of compounds in […] potassium phosphate buffer, pH=7.4 and 30 μM 2, 3 diphosphoglycerate (DPG) in 96 well plates in a final volume of 160 μl. Compounds were added at different concentrations (3 μM to 100 μM final concentrations). Plates were covered with a Mylar film. After incubation was completed the Mylar cover was removed and the plates were placed in a Spectrostar Nano plate reader previously heated at 37° C. Five minutes later, N2 (flow rate=20 L/min) was flowed through the spectrophotometer. Spectroscopic measurements (300 nm to 700 nm) were taken every 5 min for 2 hours. Data analysis was performed by using linear regression from the data retrieved for all wavelengths.
Table 4 below lists the delta R values where + indicates a delta R of between 0 and 30, ++ indicates a delta R of between 30 and 50, and +++ indicates a delta R of 50 or greater. Unless noted otherwise, the compounds in Table 2 were tested at 9 μM.

[2] = biological target: T3, purified Hemoglobin S (HbS) (Homo sapiens, UniProt P68871+P69905, E7V); assay: Modulation of hemoglobin oxygen affinity: oxygen equilibrium curves (OEC) in purified HbS, HEMOX analyzer; type: biochemical; details: compounds tested at 30 μM; 25 μM purified HbS, 45 min at 37° C., pH 7.4
T3 construct: HbS was purified by a modified procedure; from tissue; host or cells: blood of homozygous sickle cell patients (CHORI)
Protocol: Oxygen equilibrium curves (OEC) in purified Hemoglobin S (HbS) were measured by the change in p50, the partial pressure of oxygen at which the heme binding sites in the HbS sample are 50% saturated with oxygen. HbS was purified by a modified procedure (Antonini and Brunori, 1971; Hemoglobin and Myoglobin in their Reactions with Ligands; North Holland Publishing Company; Amsterdam, London) from blood obtained from homozygous sickle cell patients though the Hemoglobinopathy Center at Children's Hospital Oakland Research Institute (CHORI) with Institutional Review Board approval. Oxygen equilibrium curves were carried out with a HEMOX analyzer, (TCS Scientific, New Hope, Pa.). Five hundred μL of 250 μM purified HbS were diluted into 4.5 mL of HEMOX buffer (30 mM TES, 130 mM NaCl, 5 mM KCl, pH=7.4) resulting in a final hemoglobin concentration of 25 μM. The compounds were added at the final desired concentrations. The mixture was incubated for 45 min at 37° C. and then transferred to the Hemox sample chamber. The samples were saturated with oxygen by flushing with compressed air for 10 minutes. The samples were then flushed with pure nitrogen and the absorbance of deoxy-Hb was recorded as a function of the solution pO2. The oxygen equilibrium data was then fit to the Hill Model to obtain values for p50. The deoxygenation curves for both HbS alone (control) and HbS in the presence of compound were collected with the TCS software. The p50 for purified Hbs was typically 13.8±1.6. Delta p50 values were obtained from the p50 value for control minus the p50 value for HbS treated with compound divided by the p50 value for the control.
The compounds of Table 1 that were where tested in the assay above were all found to have positive delta p50 values. Delta p50% is calculated from [[p50(HbS)-p50(HbS treated with compound)]/p50(HbS)]×100. Table 2 below lists the delta p50% values where + indicates a delta p50% of between 0 and 29 and ++ indicates a delta p50% of 30 or greater. Unless noted otherwise, the compounds in Table 2 were tested at 30 μM.

[3] = tested on: Transgenic mice producing human HbS; details: extreme hypoxia (5% oxygen), cited from earlier work

Row | Structure (SMILES) | % delta Delay (purified HBS) | delta p50% [1] | delta R (%) (HbS/A) | delta p50 [2] | hypoxia-induced sickled red blood cells ([3]; compared to non-treated mice) | survival times [3]
1 | COC(=O)[C@H]1CC[C@H](COc2cccc(O)c2C=O)CC1 [Compound 4, trans-methyl 4-((2-formyl-3-hydroxyphenoxy)methyl)cyclohexanecarboxylate] | ††† (††† denotes activity >120% but ≤140%) | + (+ indicates a delta p50% of between 0 and 29) | +++ (+++ indicates a delta R of 50 or greater) | ++ (++ indicates a delta p50% of 30 or greater) |  | 
2 | O=Cc1ccc(CO)o1 [Compound 5HMF, 5-hydroxymethyl-2-furfuraldehyde] |  |  |  |  | reduced amounts of hypoxia-induced sickled red blood cells | significantly improved survival times
3 | O=Cc1c(O)cccc1OC[C@H]1CCC[C@@H](C(=O)O)C1 (relative stereo) [Compound 5, cis-3-((2-formyl-3-hydroxyphenoxy)methyl)cyclohexanecarboxylic acid] | †††† (†††† denotes activity >160%) | ++ (++ indicates a delta p50% of between 30 and 50) | +++ (+++ indicates a delta R of 50 or greater) | ++ (++ indicates a delta p50% of 30 or greater) |  | 
4 | COC(=O)[C@H]1CC[C@@H](COc2cccc(O)c2C=O)CC1 [Compound 1, cis-methyl 4-((2-formyl-3-hydroxyphenoxy)methyl)cyclohexanecarboxylate] | †† (†† denotes activity >80% but ≤120%) | + (+ indicates a delta p50% of between 0 and 29) | +++ (+++ indicates a delta R of 50 or greater) | ++ (++ indicates a delta p50% of 30 or greater) |  | 
5 | COC(=O)C1CCCC(COc2cccc(O)c2C=O)C1 (stereo not shown) [Compound 9, methyl 3-((2-formyl-3-hydroxyphenoxy)methyl)cyclohexanecarboxylate] |  |  | +++ (+++ indicates a delta R of 50 or greater) | + (+ indicates a delta p50% of between 0 and 29) |  | 
6 | O=Cc1c(O)cccc1OC[C@H]1CC[C@H](C(=O)O)CC1 [Compound 6, trans-4-((2-formyl-3-hydroxyphenoxy)methyl)cyclohexanecarboxylic acid] | †† (†† denotes activity >80% but ≤120%) | + (+ indicates a delta p50% of between 0 and 29) |  | ++ (++ indicates a delta p50% of 30 or greater) |  | 
7 | O=Cc1c(O)cccc1OC[C@H]1CC[C@@H](C(=O)O)CC1 [Compound 2, cis-4-((2-formyl-3-hydroxyphenoxy)methyl)cyclohexanecarboxylic acid] | †††† (†††† denotes activity >160%) | ++ (++ indicates a delta p50% of between 30 and 50) | ++ (++ indicates a delta R of between 30 and 50) | ++ (++ indicates a delta p50% of 30 or greater) |  | 

The next lines start with results.

Row | % delta Delay (purified HBS) | Structure (SMILES) | delta p50% [1] | delta R (%) (HbS/A) | delta p50 [2] | hypoxia-induced sickled red blood cells ([3]; compared to non-treated mice) | survival times [3]
8 | † († denotes activity ≥40% but ≤80%) | COc1cccc(OC[C@H]2CC[C@H](C(=O)OC)CC2)c1C=O [Compound 8, trans-methyl 4-((2-formyl-3-methoxyphenoxy)methyl)cyclohexanecarboxylate] |  | + (+ indicates a delta R of between 0 and 30) | + (+ indicates a delta p50% of between 0 and 29) |  | 
9 | † († denotes activity ≥40% but ≤80%) | O=Cc1c(O)cccc1OCC1CCCCC1c1ccccc1 (stereo not shown) [Compound 11, 2-hydroxy-6-((2-phenylcyclohexyl)methoxy)benzaldehyde] |  | ++ (++ indicates a delta R of between 30 and 50) |  |  | 
10 | †† (†† denotes activity >80% but ≤120%) | COC(=O)C1CCCC(COc2cccc(O)c2C=O)C1 (stereo not shown) [Compound 7, methyl 3-((2-formyl-3-hydroxyphenoxy)methyl)cyclohexanecarboxylate] | + (+ indicates a delta p50% of between 0 and 29) |  | ++ (++ indicates a delta p50% of 30 or greater) |  | 
11 | †† (†† denotes activity >80% but ≤120%) | O=Cc1c(O)cccc1OCC1=C(c2ccccc2)CCCC1 [Compound 10, 2-hydroxy-6-((3,4,5,6-tetrahydro-[1,1′-biphenyl]-2-yl)methoxy)benzaldehyde] | ++ (++ indicates a delta p50% of between 30 and 50) | ++ (++ indicates a delta R of between 30 and 50) |  |  | 
